In US8247211B2, “Glycopeptide antibiotics” (American Cyanamid Company, priority 2001, dated 2012):
Values after ≈ are worked out from the molar mass of the structure shown.

What was measured:
Streptococcus sp. = assay: In vitro antibacterial evaluation: minimum inhibitory concentration (MIC), broth dilution method; format: cell-based
How it was run: (§1)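 Susceptibility determined by NCCLS-recommended broth dilution (M7-A2), Muller-Hinton II […]. Concentration span 64-0.06 μg/mL, inoculum 5×10^5 CFU/mL. Isolates include strains resistant to methicillin, penicillin and/or vancomycin.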

Staphylococcus sp. = assay: as above; format: cell-based
How it was run: as §1

Enterococcus sp. = assay: as above; format: cell-based
How it was run: as §1

Escherichia coli = assay: as above; format: cell-based; conditions: strain ATCC 25922
How it was run: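 Using Muller-Hinton II […] and an inoculum of 5×10^5 CFU/mL, antibiotic dilutions from 64 down to 0.06 μg/mL were tested following NCCLS M7-A2. The MIC is the lowest concentration inhibiting growth, including in methicillin-, penicillin- or vancomycin-resistant clinical isolates.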

[1] = tested on: Staphylococcus aureus-SMITH (GC 4543); assay: Acute lethal infection in mice (ED50); format: in vivo; conditions: female CD-1 mice, intraperitoneal challenge, intravenous dose 30 min. after infection, 7 day survival ratios
How it was run: (§2)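 IP bacterial challenge, female CD-1 mice; inoculum lethal to untreated controls in 24-48 hr. IV dosing in saline or 5% dextrose 30 min post-infection, 5 mice/dose. ED50 from 7-day survival, 3 tests pooled.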

[2] = tested on: Enterococcus faecalis (GC 2246), vancomycin resistant strain; assay: Acute lethal infection in mice (ED50); format: in vivo; conditions: female CD-1 mice, intraperitoneal challenge, intravenous dose 30 min. after infection, 7 day survival ratios
How it was run: as §2

[3] = broth dilution, 18 hours at 35° C.

CC(c1ccccc1)C1NC(=O)CNC(=O)C(CO)NC(=O)C(C(O)C2CNC(=N)N2C2OC(CO)C(O)C(O)C2O)NC(=O)C(C(O)C2CNC(=N)N2)NC(=O)C(Cc2ccc(OC3OC(CO)C(OC4OC(COC(=O)C(c5ccccc5)c5ccccc5)C(O)C(O)C4O)C(O)C3O)cc2)NC1=O (stereo not drawn) [Example 96c, Cyclo[glycyl-β-methylphenylalanyl-O-[4-O-[6-O-(diphenylacetyl)hexopyranosyl)hexopyranosyl]tyrosyl-3-(2-iminoimidazolidin-4-yl)seryl-3-(3-hexopyranosyl-2-iminoimidazolidin-4-yl)serylseryl]]
MIC Streptococcus agalactiae (GC 4564) (Streptococcus sp.; Streptococcus agalactiae (GC 4564), broth dilution, 18 hours at 35° C.): <0.06 µg/mL
MIC Streptococcus pneumoniae (GC 4565) (Streptococcus sp.; Streptococcus pneumoniae (GC 4565), broth dilution, 18 hours at 35° C.): <0.06 µg/mL
MIC Streptococcus pyogenes (ID-3187) (Streptococcus sp.; Streptococcus pyogenes (ID-3187), broth dilution, 18 hours at 35° C.): <0.06 µg/mL
MIC Streptococcus agalactiae (GC 4564) (Streptococcus sp.; strain GC 4564): <0.06 µg/mL
MIC Streptococcus pneumoniae (GC 4565) (Streptococcus sp.; strain GC 4565): <0.06 µg/mL
MIC Streptococcus pyogenes (ID-3187) (Streptococcus sp.; strain ID-3187): <0.06 µg/mL
MIC Staphylococcus aureus (ATCC 29213) (Staphylococcus sp.; [3]): 1 µg/mL (≈ 0.671 µM)
MIC Staphylococcus aureus (GC 1131) (Staphylococcus sp.; [3]): 0.5 µg/mL (≈ 0.336 µM)
MIC Staphylococcus aureus (GC 4541) (Staphylococcus sp.; [3]): 0.5 µg/mL (≈ 0.336 µM)
MIC Staphylococcus aureus (GC 4542) (Staphylococcus sp.; [3]): 1 µg/mL (≈ 0.671 µM)
MIC Staphylococcus aureus (GC 4544) (Staphylococcus sp.; [3]): 1 µg/mL (≈ 0.671 µM)
MIC Staphylococcus aureus (GC 4545) (Staphylococcus sp.; [3]): 0.5 µg/mL (≈ 0.336 µM)
MIC Staphylococcus aureus-SMITH (GC 4543) (Staphylococcus sp.; strain GC 4543, 18 hours at 35° C.): 0.5 µg/mL (≈ 0.336 µM)
MIC Staphylococcus haemolyticus (GC 4546) (Staphylococcus sp.; strain GC 4546): 0.5 µg/mL (≈ 0.336 µM)
MIC Coagulase Negative Staphylococcus (GC 4547) (Staphylococcus sp.; strain GC 4547): 1 µg/mL (≈ 0.671 µM)
MIC Coagulase Negative Staphylococcus (GC 4548) (Staphylococcus sp.; strain GC 4548): 0.25 µg/mL (≈ 0.168 µM)
MIC Coagulase Negative Staphylococcus (GC 4549) (Staphylococcus sp.; strain GC 4549): 1 µg/mL (≈ 0.671 µM)
MIC Coagulase Negative Staphylococcus (GC 4551) (Staphylococcus sp.; strain GC 4551): 1 µg/mL (≈ 0.671 µM)
MIC Coagulase Negative Staphylococcus (ID-3941) (Staphylococcus sp.; strain ID-3941): 0.5 µg/mL (≈ 0.336 µM)
MIC Staphylococcus aureus-SMITH (GC 4543) (Staphylococcus sp.; strain SMITH GC 4543, broth dilution, 18 hours at 35° C.): 0.5 µg/mL (≈ 0.336 µM)
MIC Enterococcus faecalis (GC 2242) (Enterococcus sp.; Enterococcus faecalis (GC 2242), broth dilution, 18 hours at 35° C.): 1 µg/mL (≈ 0.671 µM)
MIC Enterococcus faecalis (ATCC 29212) (Enterococcus sp.; strain ATCC 29212): 2 µg/mL (≈ 1.34 µM)
MIC Enterococcus faecalis (GC 2242) (Enterococcus sp.; strain GC 2242): 1 µg/mL (≈ 0.671 µM)
MIC Enterococcus faecium (GC 2243) (Enterococcus sp.; strain GC 2243): 2 µg/mL (≈ 1.34 µM)
MIC Enterococcus faecalis (GC 4552) (Enterococcus sp.; strain GC 4552): 2 µg/mL (≈ 1.34 µM)
MIC Enterococcus faecalis (GC 4553) (Enterococcus sp.; strain GC 4553): 2 µg/mL (≈ 1.34 µM)
MIC Enterococcus faecalis (GC 4554) (Enterococcus sp.; strain GC 4554): 2 µg/mL (≈ 1.34 µM)
MIC Enterococcus faecium (GC 4556) (Enterococcus sp.; strain GC 4556): 2 µg/mL (≈ 1.34 µM)
MIC Enterococcus faecium (GC 4557) (Enterococcus sp.; strain GC 4557): 1 µg/mL (≈ 0.671 µM)
MIC Enterococcus avium (GC 4558) (Enterococcus sp.; strain GC 4558): 2 µg/mL (≈ 1.34 µM)
MIC Escherichia coli (ATCC 25922) (Escherichia coli): 64 µg/mL (≈ 43 µM)
median effective dose (ED50), Staphylococcus aureus-SMITH (GC 4543) [1]: 0.29 mg/kg
median effective dose (ED50), Enterococcus faecalis (GC 2246) [2]: 5.2 mg/kg
